Consider three molecules from patent publication US5538949A, “Modified platelet factor-4 and cleaved platelet factor 4” (Eli Lilly and Company, priority 1995, dated 1996).

Positions of bridges follow the written chain, without caps; N, C: chain ends. Chains are numbered I, II in the order given. No end group written: not given here.

The subject of one experiment is endothelial cells. As to the kind of experiment: Endothelial cell proliferation inhibition assay. Type of experiment: cell-based, bovine. The conditions noted are these: endothelial cells with 20 ng/ml fibroblast growth factor, four days growth, cell count; for IC50, inhibition of endothelial cell proliferation: average of 4 wells; for IC50: molar figure in parentheses. Here is the method:
Primary retinal capillary endothelial cell cultures were prepared in substantial accordance with the procedure described in Buzney et al., Retinal Vascular Endothelial Cells and Pericytes: Differential Growth Characteristics in vitro, Invest. Ophthalmol. Visual Sci. 24: 470-483 (1983) and separated from contaminating cells as described in Voyta et al., Identification and Isolation of Endothelial Cells Based on their Increased Uptake of Acetylated-low density Lipoprotein, J. Cell Biol. 99: 2034-2040 (1981).
Alternatively, bovine heart endothelial cells were obtained (American Type Culture Collection; Rockville, Md. 20852) for use in the assay. Irrespective of source, the endothelial cells were seeded into 24 well tissue culture plates at a cell density of 10,000 cells/well in Dulbecco's modified Eagle Medium (GIBCO; Grand Island, N.Y.) supplemented with 5% bovine serum albumin, 1% penicillin-streptomycin, 1% L-glutamine, and 20 ng/ml fibroblast growth factor. Immediately after seeding the cells, various amounts of PF-4 (Sigma Chemical Co.; St. Louis, Mo. 63178), MPF-4, or CPF-4 (isolated as describe in the above examples) were added to individual growth wells. MPF-4 and CPF-4 were tested at final concentrations ranging from 0.001 to 1 μ/ml. For comparison, native PF-4 was tested over a range of 0.001 to 3 μ/ml, and supplemented medium alone served as the negative control. The endothelial cell cultures were allowed to grow for four days at 37 C., 5% CO2 in a humidified tissue culture incubator. The cultures were then harvested individually by trypsinization and counted using a Zm-Coulter Counter (Coulter Electronics. Inc.; Opa Locka, Fla. 33054).
The results were plotted in FIG. 1, and each point on the graph represented the average of 4 data points; ie […]. […] The inhibitory concentration for MPF-4 is close to the physiological range of PF-4 found in human plasma (Id.).

The nature of experiment [1]: Heparin affinity chromatography. The conditions noted are these: elute in high-affinity heparin binding fraction (0.7M to 2.0M NaCl). The source says: The eluted proteins are then contacted with a heparin affinity resin. The ordinarily skilled artisan will readily realize that this step is best achieved in a column chromatography mode. Heparin affinity columns are commercially available from some of the same vendors mentioned above. In this step, the molecules of interest, both MPF-4 or CPF-4, bind to the heparin column and are eluted using an increasing linear salt gradient. The preferred salt is NaCl, and the portion of the gradient that is preferably collected is the 0.1-2.0M portion. The more highly preferred portion of the gradient to collect is the 0.7-2.0M portion.
The C4-pool was further fractionated by heparin affinity chromatography on a Econo-pac™ 5 ml heparin-sepharose cartridge (BioRad, Richmond, Calif. 94804). The bound proteins were eluted by a linear gradient of 0 to 2.0M NaCl in phosphate buffer saline (PBS) at a flow rate of 2.0 ml/min. The proteins that eluted from the column were pooled into three fractions: (1) non-heparin binding (flow through), (2) low-affinity heparin binding (0 to 0.7M NaCl), and (3) high-affinity heparin binding (0.7M to 2.0M NaCl) fractions.

Broadly, the IC50 is the concentration at which inhibition is half-maximal.

On to “MPF-4: 54 amino acid protein, SEQ ID NO:1; homologous with the 54 C-terminal residues of PF-4, beginning with Ser-17 (SQVRPRHITSLEVIKAGPHCPTAQLIATLKNGRKICLDLQAPLYKKIIKKLLES)”, for which, in the experiment with endothelial cells, the “IC50, inhibition of endothelial cell proliferation” value (“IC50, inhibition” for short) was 30 to 50 ng/mL and the IC50 was approximately 7 nM. Moreover, the heparin binding entry in experiment [1] is given as “bind heparin”.
Turning to “PF-4: native human platelet factor-4 (Sigma Chemical Co.), tested for comparison [reference compound]”, in the experiment with endothelial cells, the “IC50, inhibition” value is 800 to 1000 ng/mL and the IC50 was approximately 130 nM.

B1: CPF-4: 16 amino acid chain (SEQ ID NO:2) disulfide bonded to the 54 amino acid chain of MPF-4 (SEQ ID NO:1) (protein)
chain 1: EAEEDGDLQCLCVKTT
chain 2: SQVRPRHITSLEVIKAGPHCPTAQLIATLKNGRKICLDLQAPLYKKIIKKLLES
modifications: disulfide I:10-II:20, I:12-II:36; not fully specified
Regarding B1, in the experiment on endothelial cells, the “IC50, inhibition” value was “approximately 150 ng/ml” and the IC50 was determined as 20 nM. The heparin binding entry in experiment [1] was “bind heparin”.
